This note sets out measurements from patent publication US7914830B2, “Composition for inhibiting thrombosis” (Taiyo Kagaku Co., Ltd, priority 2003, dated 2011).

In assay [1] the test system is platelet poor plasma (PPP) separated from human blood. Kind of assay: APTT and heparin-like activity, hibiscus anti-blood coagulant compositions (Test Examples C-1 to C-3). Format: biochemical. As to the method: Ten microliters of heparin adjusted to a concentration of 0.05, 0.1, 0.2 or 0.4 U/mL and 40 μL of platelet poor plasma (PPP) separated from human blood were placed in a reaction cuvette, and the components were reacted at 37° C. for 1 minute. Thereafter, 50 μL of an APTT reagent (manufactured by INTERNATIONAL REAGENTS CORPORATION) was added thereto to further react at 37° C. for 2 minutes, and 50 μL of 25 mM calcium chloride was then added. The time period by which plasma was coagulated (APTT; second) was measured with a coagulometer (manufactured by SYSMEX CORPORATION). In order to evaluate the anti-blood coagulant effect of the anti-blood coagulant composition of the present invention, a calculation formula for the heparin-like activity value (U/mg) was obtained from the relationship between the heparin concentration and the APTT of heparin.
Thereafter, 50 μL of an APTT reagent (manufactured by INTERNATIONAL REAGENTS CORPORATION) was added to further react the components at 37° C. for 2 minutes.

The test system of assay [2] is platelet rich plasma of a normal individual. Kind of assay: Prothrombin time (PT), anti-extrinsic blood coagulant activity, Hizikia fusiforme (Test Examples F-1, F-2). It counts as biochemical, human. As to the method: The anti-extrinsic blood coagulant activity of the extrinsic blood coagulation preventing composition of the present invention was obtained as follows: Ten microliters of a sample of a heparin test solution adjusted by […] rich plasma of a normal individual using a coagulometer (manufactured by SYSMEX CORPORATION) to react the components at 37° C. for 1 minute. Thereafter, 100 μL of a PT reagent (manufactured by INTERNATIONAL REAGENTS CORPORATION) was added thereto, and the time period by which plasma was coagulated was measured, i.e. PT was measured. From the relationship between the concentration of this heparin test solution and the PT, the following numerical formula for a heparin-like activity value (U/mg) was obtained.
Thereafter, a sample was prepared by diluting the extrinsic blood coagulation preventing composition A of the present invention with distilled water so as to have a concentration of 0.078, 0.156, 0.313, 0.625 or 1.25 mg/mL calculated as a solid content. The PT was measured in the same manner and the resultant value was plugged into the above numerical formula to give a heparin-like activity value relative to heparin (1 U/mL) at each sample concentration.
In addition, a PT ratio was calculated at each sample concentration according to the following equation using a heparin test solution concentration of 0 mg/mL as the control. PT Ratio=PT When Adding Sample/PT of Control(Heparin Test Solution Concentration:0 mg/mL)
The PTs were determined for the extrinsic blood coagulation preventing composition A obtained in Example F-1, the extrinsic blood coagulation preventing compositions B, C, D and E obtained in Example F-2, and the extrinsic blood coagulation preventing composition F obtained in Example F-3 at a concentration of 0.2 mg/mL calculated as a solid content. Thereafter, the resultant value was plugged into the calculation formula for a heparin-like activity value (U/mg) in Test Example F-1, and the heparin-like activity value and the PT ratio of each extrinsic blood coagulation preventing composition were obtained. In addition, a sample was prepared using the supernatant fraction with 80% ethyl alcohol in Example F-2 in the same manner, and the heparin-like activity value and the PT ratio were obtained.

Assay [3] relates to platelet poor plasma (PPP) separated from human blood. Kind of assay: APTT and heparin-like activity, Hizikia fusiforme thrombus preventing compositions (Test Examples F′-1, F′-2). It counts as biochemical. As to the method:
The thrombus preventing effect of the thrombus preventing composition A of the present invention was evaluated by measuring the APTT with the coagulometer utilizing platelet poor plasma (PPP) separated from human blood.
Ten microliters of a sample of which amount was adjusted so as to have a concentration of the thrombus preventing composition A of the present invention of 0.075, 0.15, 0.3 or 0.5 mg/mL calculated as a solid content, and 40 μL of PPP were placed in a reaction cuvette to react the components at 37° C. for 1 minute. Thereafter, 50 μL of an APTT reagent (manufactured by INTERNATIONAL REAGENTS CORPORATION) was added to further react the components at 37° C. for 2 minutes, and 50 μL of 25 mM calcium chloride was then added thereto. The time period (seconds) by which plasma was coagulated was measured, and defined as APTT.
Here, as the control, APTT was measured using heparin adjusted to have a concentration of 0.05, 0.1, 0.2 and 0.3 U/mL as a sample in the same manner. The following calculation formula for a heparin-like activity value (U/mg) was obtained from this relationship between the concentration of this heparin and APTT of heparin, and the resultant value was plugged into this calculation formula to give a heparin-like activity value relative to heparin (1 U/mL) at each sample concentration.
The APTTs were measured for the thrombus preventing composition A obtained in Example F′-1, the thrombus preventing compositions B, D and E obtained in Example F′-2, and the thrombus preventing composition F obtained in Example F′-3 at a concentration of 0.2 mg/mL calculated as a solid content in the same manner as in Test Example F′-1. Thereafter, the resultant value was plugged into the calculation formula for the heparin-like activity value (U/mg) in Test Example F′-1 to give a heparin-like activity value of each thrombus preventing composition. In addition, a sample was prepared in the same manner for the supernatant fraction with 80% ethanol in Example F′-2, and its heparin-like activity value was obtained.

For assay [4] the test system is unchanged. Put plainly: APTT and heparin-like activity, enzymatically treated Hizikia fusiforme compositions (Test Examples F″-1, F″-2). Format: biochemical. As to the method: The thrombus preventing effect of the composition A for preventing thrombus of the present invention was evaluated by measuring the APTT with a coagulometer (manufactured by SYSMEX CORPORATION) utilizing platelet poor plasma (PPP) separated from human blood.
Ten microliters of a sample of which amount was adjusted so as to have a concentration of 0.075, 0.15, 0.3 or 0.5 mg/mL calculated as a solid content, and 40 μl of PPP were placed in a reaction cuvette to react the components at 37° C. for 1 minute. Thereafter, 50 μL of an APTT reagent (manufactured by INTERNATIONAL REAGENTS CORPORATION) was added thereto to further react the components at 37° C. for 2 minutes, and 50 μL of 25 mM calcium chloride was then added thereto. The time period (second) by which plasma was coagulated was measured, and defined as APTT.
Here, as the control, the APTT was measured in the same manner using heparin adjusted to a concentration of 0.05, 0.1, 0.2 or 0.3 U/mL as a sample. The following calculation formula for a heparin-like activity value (U/mg) was obtained from the relationship between the concentration of heparin and the APTT of heparin. The resultant value was plugged into the calculation formula to give a heparin-like activity value relative to heparin (1 U/mL) at each sample concentration.
The APTTs were measured for the composition A for preventing thrombus obtained in Example F″-1, the compositions B and C for preventing thrombus obtained in Example F″-2, and the comparative composition obtained in Comparative Example F″-1 in the same manner as in Test Example F″-1 at a concentration of 0.2 mg/mL calculated as a solid content. Thereafter, the resultant value was plugged into the calculation formula for a heparin-like activity value (U/mg) in Test Example F″-1, to give a heparin-like activity value of each composition for preventing thrombus.

Assay [5] has the same test system. Put plainly: APTT anti-coagulant activity of carrageenan antithrombotic agents (Test Example G-1). It counts as biochemical. The conditions noted are these: for Anti-Coagulant Activity: relative to water control. As to the method: The anti-coagulant activity of the antithrombotic agent of the present invention was assayed with a coagulometer (manufactured by SYSMEX CORPORATION) utilizing platelet poor plasma (PPP) separated from human blood.
Ten microliters of a sample, 25 microliters of an APTT reagent (manufactured by INTERNATIONAL REAGENTS CORPORATION), and 25 microliters of 10% cephalin were placed into a reaction cuvette to react the components at 37° C. for 3 minutes, and 50 microliters of PPP was placed in the reaction cuvette to react the components for 2 minutes. Finally, 50 microliters of 25 millimolar calcium chloride was added to coagulate the mixture obtained. The time period (second) by which plasma was coagulated was measured, and defined as APTT.
Here, water was used as the control, and the APTT was measured in the same manner. The anti-coagulant activity (%) was calculated from the measured APTT of the sample, relative to that of the control according to the following numerical formula. Anti-Coagulant Activity(%)=((APTT of Sample−APTT of Control)/APTT of Control)×100 […]

The mark [6] stands for this setting: heparin concentration 0.05 U/mL.

For the substance heparin, the APTT in assay [1] (setting [6]) amounted to 39.6 s; in assay [1] (heparin concentration 0.1 U/mL), 50.9 s; in assay [1] (heparin concentration 0.2 U/mL), 86.4 s; in assay [1] (heparin concentration 0.4 U/mL) it was 180.2 s; in assay [3] (setting [6]) it was 39.6 s; in assay [3] (heparin concentration 0.1 U/mL) it was 50.9 s. Moreover, the APTT in assay [3] (heparin concentration 0.2 U/mL) was found to be 86.4 s; in assay [3] (heparin concentration 0.3 U/mL), 180.2 s; in assay [4] (setting [6]), 39.6 s; in assay [4] (heparin concentration 0.1 U/mL) it was 50.9 s; in assay [4] (heparin concentration 0.2 U/mL) it was 86.4 s; in assay [4] (heparin concentration 0.3 U/mL), 180.2 s. The PT in assay [2] (heparin concentration 0.0625 U/mL) was determined as 11.6 s; in assay [2] (heparin concentration 0.125 U/mL), 11.8 s; in assay [2] (heparin concentration 0.25 U/mL) it was 12.3 s; in assay [2] (heparin concentration 0.5 U/mL) it was 13.2 s; in assay [2] (heparin concentration 1 U/mL), 18.1 s.

As to κ-carrageenan, the figures for the APTT in assay [5] (concentration 0.5 mg/mL), in assay [5] (concentration 2.5 mg/mL) and in assay [5] (concentration 5.0 mg/mL) were 99 s, 491 s and 600 or more sec, respectively. Further, the “Anti-Coagulant Activity” value in assay [5] (concentration 0.5 mg/mL) is on record as 120%; in assay [5] (concentration 2.5 mg/mL) it was 991%; in assay [5] (concentration 5.0 mg/mL), 1200 or more %.

On to ι-carrageenan, for which the figures for the APTT in assay [5] (concentration 0.5 mg/mL), in assay [5] (concentration 2.5 mg/mL) and in assay [5] (concentration 5.0 mg/mL) were 162 s, 600 or more sec and 600 or more sec, respectively. Besides, the “Anti-Coagulant Activity” value is 260% in assay [5] (concentration 0.5 mg/mL), 1200 or more % in assay [5] (concentration 2.5 mg/mL) and 1200 or more % in assay [5] (concentration 5.0 mg/mL).

Consider λ-carrageenan, for which the values for the APTT in assay [5] (concentration 0.5 mg/mL), in assay [5] (concentration 2.5 mg/mL) and in assay [5] (concentration 5.0 mg/mL) were 398 s, 600 or more sec and 600 or more sec, respectively. Further, the “Anti-Coagulant Activity” value was 784% in assay [5] (concentration 0.5 mg/mL), 1200 or more % in assay [5] (concentration 2.5 mg/mL) and 1200 or more % in assay [5] (concentration 5.0 mg/mL).
